Measured values from patent US11485751B2, “Apramycin derivatives” (WAYNE STATE UNIVERSITY, priority 2017, dated 2022).
Values after ≈ are worked out from the molar mass of the structure shown.

What was measured:
[1] = tested on: clinical isolates carrying AAC(3)-IV; assay: MIC broth microdilution, AAC(3)-IV; type: cell-based; details: clinical isolates, IMM Univ. Zurich; AAC(3)-IV; read-out: MIC AAC(3)-IV
Procedure, shortened: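 Clinical isolates supplied by the Zurich Institute of Medical Microbiology were tested for MIC (μg/ml) using CLSI M07-A10 broth microdilution.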

[2] = tested on: clinical isolates carrying APH(3′)-I; assay: MIC broth microdilution, APH(3′)-I; type: cell-based; details: IMM Univ. Zurich
From the text: (§1) Minimal inhibitory concentrations (MIC) have been determined by broth microdilution assays (CLSI. Methods for Dilution Antimicrobial Susceptibility Tests for Bacteria That Grow Aerobically; Approved Standard—Tenth Edition. CLSI document M07-A10. Wayne, Pa.: Clinical and Laboratory Standards Institute; 2015.).
(§2) Minimal inhibitory concentrations (MICs, […]) against clinical isolates from Institute of Medical Microbiology, Univ. Zurich, and the IC50 values for bacterial, human mitochondrial and human cytosolic ribosomes are indicated.

[3] = tested on: clinical isolates carrying APH(3′)-II; assay: MIC broth microdilution, APH(3′)-II; type: cell-based; details: clinical isolates, IMM Univ. Zurich; APH(3′)-II; read-out: MIC APH(3′)-II
From the text: as §1, §2

[4] = tested on: clinical isolates carrying APH(3′)-III; assay: MIC broth microdilution, APH(3′)-III; type: cell-based; details: IMM Univ. Zurich
From the text: as §1, §2

[5] = tested on: clinical isolates carrying APH(3′)-VI; assay: MIC broth microdilution, APH(3′)-VI; type: cell-based; details: IMM Univ. Zurich
From the text: as §1, §2

bacterial ribosomes = assay: in-vitro translation assay, bacterial ribosomes; type: biochemical
Procedure, shortened: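 Cell-free translation; IC50 read-out. Mito = human chimeric ribosomes; cytosolic = rabbit reticulocyte ribosomes; bacterial ribosomes run in the same assay format.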

[6] = tested on: human mitochondrial ribosomes; assay: in-vitro translation assay, human mitochondrial (human chimeric) ribosomes; type: biochemical
Procedure, shortened: (§3)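 Reported values are IC50s for inhibition of in-vitro translation. For the mitochondrial target, human chimeric ribosomes were used. For the cytosolic target, rabbit reticulocyte ribosomes were used.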

[7] = tested on: human cytosolic ribosomes; assay: in-vitro translation assay, human cytosolic ribosomes; type: biochemical
Procedure, shortened: as §3

[8] = tested on: AG212, Escherichia coli ATCC25922; assay: MIC reference strain AG212; type: cell-based; details: Escherichia coli; reference strain ATCC25922; read-out: MIC AG212 E. coli
Procedure, shortened: (§4)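 The method determines minimal inhibitory concentrations using the standard CLSI microdilution procedure in liquid medium.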

[9] = tested on: AG215, Klebsiella pneumonia; assay: MIC reference strain AG215; type: cell-based; details: Klebsiella pneumoniae, reference strain; read-out: MIC AG215 K. pneumonia
Procedure, shortened: as §4

[10] = tested on: AG290, Enterobacter cloacae; assay: MIC reference strain AG290; type: cell-based; details: Enterobacter cloacae; reference strain; read-out: MIC AG290 E. cloacae
Procedure, shortened: as §4

[11] = tested on: AG220, Pseudomonas aeruginosa ATCC27853; assay: MIC reference strain AG220; type: cell-based; details: Pseudomonas aeruginosa, ATCC27853, reference strain ATCC27853; read-out: MIC AG220 P. aeruginosa
Procedure, shortened: as §4

[12] = tested on: AG225, Acinetobacter baumannii pittii; assay: MIC reference strain AG225; type: cell-based; details: Acinetobacter baumannii, reference strain; read-out: MIC AG225 A. baumannii
Procedure, shortened: as §4

AG001 E. coli WT = assay: Antibacterial activity, clinical isolate AG001; type: cell-based; design: unit not given here
Procedure, shortened: (§5)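 Susceptibility was tested per CLSI aerobic dilution protocol using microbroth format, with the MIC taken as the end point.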

AG055 E. coli WT = assay: Antibacterial activity, clinical isolate AG055; type: cell-based; design: unit not given here
Procedure, shortened: as §5

AG003 E. coli AAC(3)-II = assay: Antibacterial activity, clinical isolate AG003; type: cell-based
Procedure, shortened: as §5

AG173 E. coli AAC(3)-IV = assay: Antibacterial activity, clinical isolate AG173; type: cell-based
Procedure, shortened: as §5

AG163 E. coli APH(3′)-I = assay: Antibacterial activity, clinical isolate AG163; type: cell-based
From the text: as §1
Table 4 and 5 show the antibacterial activity of the compounds of the invention against bacterial reference strains (table 4) and against representative clinical isolates (table 5).

AG038 MRSA = assay: Antibacterial activity, clinical isolate AG038; type: cell-based; design: unit not given here
Procedure, shortened: as §5

[13] = tested on: AG039 MRSA AAC(6′)-I ANT(4′)-I; assay: Antibacterial activity, clinical isolate AG039; type: cell-based
Procedure, shortened: as §5

[14] = tested on: AG042 MRSA AAC(6′)-I ANT(4′)-I APH(2′); assay: Antibacterial activity, clinical isolate AG042; type: cell-based; design: unit not given here
Procedure, shortened: as §5

AG031 P. aer. APH(3′)-II = assay: Antibacterial activity, clinical isolate AG031; type: cell-based; design: unit not given here
Procedure, shortened: as §5

AG032 P. aer. APH(3′)-II = assay: Antibacterial activity, clinical isolate AG032; type: cell-based; design: unit not given here
Procedure, shortened: as §5

[15] = tested on: AG033 P. aer. APH(3′)-II AAC(6′)-I; assay: Antibacterial activity, clinical isolate AG033; type: cell-based; design: unit not given here
Procedure, shortened: as §5

[16] = tested on: Engineered E. coli pH430 WT; assay: Activity, engineered E. coli pH430 WT; type: cell-based; details: wild type
Procedure, shortened: (§6)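 Strains are tested by broth microdilution under the CLSI M07-A10 procedure. The lowest inhibitory concentration is recorded as the MIC.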

[17] = tested on: Engineered E. coli AG103 armA; assay: Activity against G1405-methylated 16S-rRNA, E. coli AG103 armA; type: cell-based
From the text: as §1

[18] = tested on: Engineered E. coli pH424 armA; assay: Activity against G1405-methylated 16S-rRNA, E. coli pH424 armA; type: cell-based
Procedure, shortened: as §6

[19] = tested on: Engineered E. coli pH425 rmtB; assay: Activity against G1405-methylated 16S-rRNA, E. coli pH425 rmtB; type: cell-based
Procedure, shortened: as §6

[20] = tested on: Engineered E. coli pH426 rmtC; assay: Activity against G1405-methylated 16S-rRNA, E. coli pH426 rmtC; type: cell-based
Procedure, shortened: as §6

[21] = tested on: Engineered E. coli pH427 rmtF; assay: Activity against G1405-methylated 16S-rRNA, E. coli pH427 rmtF; type: cell-based
Procedure, shortened: as §6

[22] = tested on: SZ380, Mycobacterium smegmatis; assay: MIC reference strain SZ380; type: cell-based; details: Mycolicibacterium smegmatis, reference strain; read-out: MIC SZ380 M. smegmatis
Procedure, shortened: as §4

ATCC19977 M. abcessus = assay: MIC reference strain ATCC19977; type: cell-based; details: read-out: MIC ATCC19977 M. abcessus
Procedure, shortened: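 Compounds are serially diluted in liquid medium in microplates, bacteria are added, and the lowest concentration preventing growth is recorded as the MIC (CLSI procedure).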

## CNC1C(OC2OC(CO)C(N)C(O)C2O)OC2CC(N)C(OC3C(N)CC(N)C(O)C3OC3OCC(O)C3O)OC2C1O (stereo not drawn) [DC146, 5-O-β-D—(Erythrofuranosyl) apramycin]
[1]
  MIC: 32 µg/mL (≈ 49.9 µM)
[2]
  MIC: 4 µg/mL (≈ 6.23 µM)
[3]
  MIC: 4 µg/mL (≈ 6.23 µM)
[4]
  MIC: 1 µg/mL (≈ 1.56 µM)
[5]
  MIC: 8 µg/mL (≈ 12.5 µM)
Bacterial ribosomes
  IC50: 90 nM
[6]
  IC50: 215 µM
[7]
  IC50: 321 µM
[8]
  MIC: 16 µg/mL
[9]
  MIC: 4 µg/mL
[10]
  MIC: 4 µg/mL
[11]
  MIC: 32 µg/mL
[12]
  MIC: 8 µg/mL
AG001 E. coli WT
  Antibacterial activity AG001 E. coli WT: 16
AG055 E. coli WT
  Antibacterial activity AG055 E. coli WT: 16
AG003 E. coli AAC(3)-II
  Antibacterial activity AG003 E. coli AAC(3)-II: 16
AG173 E. coli AAC(3)-IV
  Antibacterial activity AG173 E. coli AAC(3)-IV: 128
AG163 E. coli APH(3′)-I
  Antibacterial activity AG163 E. coli APH(3′)-I: 8
AG038 MRSA
  Antibacterial activity AG038 MRSA: 16-32
[13]
  Antibacterial activity AG039 MRSA AAC(6′)-I ANT(4′)-I: 16-32
[14]
  Antibacterial activity AG042 MRSA AAC(6′)-I ANT(4′)-I APH(2′): 16
AG031 P. aer. APH(3′)-II
  Antibacterial activity AG031 P. aer. APH(3′)-II: 64
AG032 P. aer. APH(3′)-II
  Antibacterial activity AG032 P. aer. APH(3′)-II: 64
[15]
  Antibacterial activity AG033 P. aer. APH(3′)-II AAC(6′)-I: 64-128
[16]
  Activity E. coli pH430 WT: 8
[17]
  Activity E. coli AG103 armA: 1
[18]
  Activity E. coli pH424 armA: 4
[19]
  Activity E. coli pH425 rmtB: 4
[20]
  Activity E. coli pH426 rmtC: 8
[21]
  Activity E. coli pH427 rmtF: 4

## CNC1C(OC2OC(CO)C(N)C(O)C2O)OC2CC(N)C(OC3C(N)CC(N)C(O)C3OC3OC(CNC=O)C(O)C3O)OC2C1O [DC177, 5-O-β-(5′″-Formamido-5′″-deoxy-D-ribefuranosyl) apramycin]
[1]
  MIC: > 32 µg/mL
[2]
  MIC: 4 µg/mL (≈ 5.72 µM)
[3]
  MIC: 8 µg/mL (≈ 11.4 µM)
[4]
  MIC: 2 µg/mL (≈ 2.86 µM)
[5]
  MIC: 8 µg/mL (≈ 11.4 µM)
Bacterial ribosomes
  IC50: 230 nM
[6]
  IC50: 399 µM
[7]
  IC50: > 500 µM
[8]
  MIC: 8 µg/mL
[9]
  MIC: 4 µg/mL
[10]
  MIC: 8 µg/mL
[11]
  MIC: > 64 µg/mL
[12]
  MIC: 16 µg/mL
[22]
  MIC: 2 µg/mL
ATCC19977 M. abcessus
  MIC: 16 µg/mL (≈ 22.9 µM)
AG001 E. coli WT
  Antibacterial activity AG001 E. coli WT: 8
AG055 E. coli WT
  Antibacterial activity AG055 E. coli WT: 16
AG003 E. coli AAC(3)-II
  Antibacterial activity AG003 E. coli AAC(3)-II: 8
AG173 E. coli AAC(3)-IV
  Antibacterial activity AG173 E. coli AAC(3)-IV: >64
AG163 E. coli APH(3′)-I
  Antibacterial activity AG163 E. coli APH(3′)-I: 8
AG038 MRSA
  Antibacterial activity AG038 MRSA: 32
[13]
  Antibacterial activity AG039 MRSA AAC(6′)-I ANT(4′)-I: 16-32
[14]
  Antibacterial activity AG042 MRSA AAC(6′)-I ANT(4′)-I APH(2′): 32
AG031 P. aer. APH(3′)-II
  Antibacterial activity AG031 P. aer. APH(3′)-II: >32
AG032 P. aer. APH(3′)-II
  Antibacterial activity AG032 P. aer. APH(3′)-II: >32
[15]
  Antibacterial activity AG033 P. aer. APH(3′)-II AAC(6′)-I: >32
[16]
  Activity E. coli pH430 WT: 8
[17]
  Activity E. coli AG103 armA: 2-4
[18]
  Activity E. coli pH424 armA: 8
[19]
  Activity E. coli pH425 rmtB: 8
[20]
  Activity E. coli pH426 rmtC: 16
[21]
  Activity E. coli pH427 rmtF: 8
